Converted amounts (≈) assume the structure as drawn.
System: HeLa
Experiment: Cytotoxicity against human HeLa cells by Fukuzawa's method
Assay type: functional, cell-based

SMILES | IC50 [µg/mL]
O=C(O)C(=O)c1c(-c2c[nH]c3cc(O)ccc23)ncc2[nH]c3ccc(O)cc3c12 [HYRTIOERECTINE A] | 10 (≈ 25.8 µM)
C[C@H]1N[C@@H](C(=O)O)Cc2c1[nH]c1ccc(O)cc21 [HYRTIOERECTINE B] | 5 (≈ 20.3 µM)
O=C(O)[C@H](O)Cc1c[nH]c2ccc(O)cc12 [HYRTIOERECTINE C] | 4.5 (≈ 20.3 µM)

From ChEMBL document CHEMBL1158817, “Hyrtioerectines A-C, cytotoxic alkaloids from the red sea sponge hyrtioserectus” (J Nat Prod, 2005)
